Test results: patent publication US9162979B2, “1,5-Diary1-2-alkylpyrrole-3-substituted nitro esters, selective COX-2 inhibitors and nitric oxide donors” (ROTTAPHARM BIOTECH S.R.L., priority 2010, dated 2015)
Counter-ions that a name gives are not always drawn.

Compared with `Cc1c(CC(=O)NCCCO[N+](=O)[O-])cc(-c2ccc(S(C)(=O)=O)cc2)n1-c1cccc(F)c1` [Example 27, N-[(3-Nitroxy)propyl]-2-[1-(3-fluorophenyl)-2-methyl-5-(4-methylsulphonylphenyl)-1H-pyrrol-3-yl]acetamide], `Cc1c(CC(=O)NCCCO[N+](=O)[O-])cc(-c2ccc(S(C)(=O)=O)cc2)n1-c1ccc(F)cc1` [Example 26, N-[(3-Nitroxy)propyl]-2-[1-(4-fluorophenyl)-2-methyl-5-(4-methylsulphonylphenyl)-1H-pyrrol-3-yl]acetamide] is higher in melting point: 125 °C for the first, 127 °C for the second.

First: Cc1c(CCOCCCO[N+](=O)[O-])cc(-c2ccc(S(C)(=O)=O)cc2)n1-c1cccc(F)c1 (as salt: nitrate) [Example 42, 3-[2-(1-(3-Fluorophenyl)-2-methyl-5-(4-methylsulphonylphenyl)-1H-pyrrol-3-yl)ethoxy]propyl Nitrate]
Second: Cc1c(CCOCCCO[N+](=O)[O-])cc(-c2ccc(S(C)(=O)=O)cc2)n1-c1ccc(F)cc1 (as salt: nitrate) [Example 41, 3-[2-[2-(1-(4-Fluorophenyl)-2-methyl-5-(4-methylsulphonylphenyl)-1H-pyrrol-3-yl)]ethoxy]propyl Nitrate]
The melting point of the first is lower: 111 to 113 °C for the first, 114 to 116 °C for the second.

First: Cc1c(C(N)C(=O)OCCCCO[N+](=O)[O-])cc(-c2ccc(S(C)(=O)=O)cc2)n1-c1cccc(F)c1 (racemic) [Example 21, (R,S)-4-(Nitrooxy)butyl-[2-amino-2-[1-(3-fluorophenyl)-2-methyl-5-(4-methylsulphonylphenyl)-1H-pyrrol-3-yl]]-acetate]
Second: Cc1c(C(N)C(=O)OCCCO[N+](=O)[O-])cc(-c2ccc(S(C)(=O)=O)cc2)n1-c1cccc(F)c1 (racemic) [Example 19, (R,S)-3-(Nitrooxy)propyl-[2-amino-2-[1-(3-fluorophenyl)-2-methyl-5-(4-methylsulphonylphenyl)-1H-pyrrol-3-yl]]-acetate]
The melting point of the first is lower: 110 °C for the first, 117 °C for the second.

First: Cc1c(CC(=O)OCCCO[N+](=O)[O-])cc(-c2ccc(S(C)(=O)=O)cc2)n1-c1ccc(F)cc1 [Example 7, 3-(Nitrooxy)propyl 2-[1-(4-fluorophenyl)-2-methyl-5-(4-methylsulphonylphenyl)-1H-pyrrol-3-yl]acetate]
Second: Cc1c(CC(=O)OCCCO[N+](=O)[O-])cc(-c2ccc(S(C)(=O)=O)cc2)n1-c1ccccc1 [Example 6]
The melting point of the first is higher: 126 to 128 °C for the first, 116 to 118 °C for the second.

`Cc1c(C(N)C(=O)OCCO)cc(-c2ccc(S(C)(=O)=O)cc2)n1-c1ccc(F)cc1` (racemic) [Example 16-II, (R,S)-2-(Hydroxy)ethyl-[2-amino-2-[1-(4-fluorophenyl)-2-methyl-5-(4-methylsulphonylphenyl)-pyrrol-3-yl]]-acetate] and `Cc1c(C(N)C(=O)OCCO)cc(-c2ccc(S(C)(=O)=O)cc2)n1-c1cccc(F)c1` (racemic) [Example 17-II, (R,S)-2-(Hydroxy)ethyl-[2-amino-2-[1-(3-fluorophenyl)-2-methyl-5-(4-methylsulphonylphenyl)-1H-pyrrol-3-yl]]-acetate] are the same in melting point: 102 °C for the first, 102 °C for the second.

First: Cc1c(CCOCCO[N+](=O)[O-])cc(-c2ccc(S(C)(=O)=O)cc2)n1-c1ccc(F)c(F)c1 (as salt: nitrate) [Example 39, 2-[2-[2-(1-(3,4-Difluorophenyl)-2-methyl-5-(4-methylsulphonylphenyl)-1H-pyrrol-3-yl]ethoxy]ethyl Nitrate]
Second: Cc1c(CCOCCCO[N+](=O)[O-])cc(-c2ccc(S(C)(=O)=O)cc2)n1-c1ccccc1 (as salt: nitrate) [Example 40, 3-[2-[2-(1-Phenyl-2-methyl-5-(4-methylsulphonylphenyl)-1H-pyrrol-3-yl)ethoxy]propyl Nitrate]
The melting point of the first is lower: 93 to 96 °C for the first, 131 to 133 °C for the second.
